Source: US20100022514A1, “Heterocycle Compounds and Methods of Use Thereof” (NORVARTIS AG, priority 2006, published 2010)
Where two headings read alike, the source gives them in different places.

Tests used:
HDAC-1 = biological target: T1, HDAC-1 (Homo sapiens, UniProt Q13547); assay: Deacetylase fluorescence assay (HDAC-1); format: biochemical
T1 construct: made in house
Description: Conventional methods are used to express deacetylase enzymes and purify them from lysed cells. The following example describes an exemplary procedure, however equivalent procedures are within the scope of the invention.
The cell line used is a derivative of 293 cells overexpressing a fusion of the gene encoding each deacetylase protein with a nucleotide sequence encoding the Flag marker.
Cells are grown in Optimem, 2% Fetal Calf Serum, Pen/Strep. For enzyme preparation, Lysis buffer (IPLS) is 50 mM Tris-HCl, pH 7.5, 120 mM NaCl, 0.5 mM EDTA and 0.5% Nonidet P-40, to which is added one tablet of Protease inhibitors (Roche 11836170001) per 10 ml buffer. Other buffers are IPHS, which is IPLS containing 1 M NaCl; TBS (Sigma #T5912) dilute 10× stock to 1× with dH2O; HD buffer: 10 mM Tris pH 8.0 (1M Stock) 10 mM NaCl (5M Stock), 10% glycerol, and for dialysis: 400 μM PMSF is added (for 2 L: use 8 ml 100 mM Stock). Protease inhibitors (Complete mini, Boehringer Mannheim), 1 tablet/10 mL are added to all buffers but not used in buffers for enzyme assays.
Cells are harvested without using trypsin, and most cells are obtained easily in PBS, with gentle striking or agitation of flasks if necessary. More adherent cells are scraped in PBS. Cells are grown in 500 cm^2 trays, from which about half of the media is aspirated (50 ml total), then cells are scraped in the rest of the media and transferred to a centrifuge tube. Trays are washed with 25 ml cold PBS, scraped again to collect additional cells, and centrifuged at 1500 rpm at 4° C. for 5 min. Cells are washed at least 3 times in PBS to remove growth media, pelleting cells after each wash by centrifugation at 1500 rpm for 5 minutes. After washing, PBS is removed and the resulting cell pellet frozen at −80° C. for storage prior to purification.
For purification, cells are resuspended in lysis buffer, 12 ml of IPLS for cells collected from 10 500 cm trays. Cells are lysed at 4° C. for 3 hrs with rocking, and debris is removed by centrifugation for 20 min at 17,000 rpm in 30 ml centrifuge tubes. If supernatant is not clear afterward, centrifugation of the supernatant is repeated. Protein concentration of the whole cell lysate is determined (generally in the range of about 2-5 mg/ml).
For immunoprecipitation per mg of protein, 15 μL of anti-Flag M2-Agarose Affinity beads (Sigma #A2220) is used. Beads are prepared by washing 3 times with 10× bead volume of PBS and 1 time with IPLS, with centrifugation of the washes at 1500 rpm for 5 min. Whole cell lysate is incubated with the Ab-beads overnight at 4° C. Then beads are centrifuged and washed in 5× volume of the following buffers: three times in IPLS (30 sec at 4° C., spin at 1500 RPM for 5 min); three times in IPHS; and three times in TBS buffer. After each centrifugation, the supernatant is aspirated, leaving the pellet as dry as possible but avoiding sucking up any of the beads.
To elute the enzyme, beads are resuspended in 5× bead volume of TBS with protease inhibitor (Roche 11836170001) 1 tablet/10 mL. Enzyme is eluted with 400 μg/mL Flag peptide (Sigma #F-3290) for 3 hrs at 4° C. on rotator. Then beads are centrifuged, and the supernatant is transferred to a new tube to which is added 1/10 volume of glycerol. The supernatant is transferred to a dialysis cassette (Pierce #66410) using a 3 cc syringe and 18 G needle, and is dialyze sup in 2 L HD buffer for 2 hrs at 4° C. (1 L/hour). The resulting purified deacetylase is divided into aliquots (300 μL/tube), is snap frozen in dry ice bath, and is stored at −80° C.
For assay of deacetylase an assay based on Deacetylase Fluorescent Activity Assay/Drug Discovery Kit (BioMol # AK500) is used, however any equivalent deacetylase assay is within the scope of the invention.
The Fluorescent Assay Buffer (FAB) contains: 25 mM Tris-HCl, pH 8.0, 137 mM NaCl, 2.7 mM KCl and 1 mM MgCl2. […]

[1] = system: p21 promoter (p21-luc) in H1299 cells; assay: p21 promoter luciferase assay using stably transfected p21-luc in H1299 cells; format: cell-based; settings: Homo sapiens, NCI-H1299
Description: The cell lines used are derived from H1299 (p21-luc). The growth media used is RPMI 1640, 10% FBS, 1% Pen/Strep and the selection media added is 500 μg/mL Geneticin (Gibco). The buffer used is 5× cell culture lysis buffer (Promega #E1531), stored at −20 C and the Luciferase assay reagent (Promega #E1483) is stored at −70° C. The results of the assay are analyzed using Wallac Software.
To assay Luciferase, the cell culture medium is removed after one day of growth and the flasks are washed once with PBS. The cells are trypsinized in 20 mL of media and the trypsin is neutralized. The cells are counted (0.5-1 mL) on a Vi-Cell XR cell viability analyzer.
Cells are then diluted to a concentration of approximately 5000 cells/200 μL, and 190 μL samples are aliquoted into each well of a Costar white 96-well TC treated white bottom plate with lid (Costar #3917). Plates are then incubated overnight at 37 C.
After a further day, a sample of the compound is added to the wells for assay.
After a further day, the cells are lysed and the luciferase activity of the lysed cells is measured. Each well is washed twice with PBS and 20 μL/well of 1× cell culture lysis buffer (dilute 5× to 1× in distilled water) is added to each well. The microtiter plates are then shaken on a microtiter plate shaker for 20 minutes at room temperate at a speed setting of 5-6. After removal from the shaker, 100 μL of Luciferase Reagent is added to each well. Each microtiter plate is then read on Wallac Envision instrument.

T1 sequence (Q13547 whole entry): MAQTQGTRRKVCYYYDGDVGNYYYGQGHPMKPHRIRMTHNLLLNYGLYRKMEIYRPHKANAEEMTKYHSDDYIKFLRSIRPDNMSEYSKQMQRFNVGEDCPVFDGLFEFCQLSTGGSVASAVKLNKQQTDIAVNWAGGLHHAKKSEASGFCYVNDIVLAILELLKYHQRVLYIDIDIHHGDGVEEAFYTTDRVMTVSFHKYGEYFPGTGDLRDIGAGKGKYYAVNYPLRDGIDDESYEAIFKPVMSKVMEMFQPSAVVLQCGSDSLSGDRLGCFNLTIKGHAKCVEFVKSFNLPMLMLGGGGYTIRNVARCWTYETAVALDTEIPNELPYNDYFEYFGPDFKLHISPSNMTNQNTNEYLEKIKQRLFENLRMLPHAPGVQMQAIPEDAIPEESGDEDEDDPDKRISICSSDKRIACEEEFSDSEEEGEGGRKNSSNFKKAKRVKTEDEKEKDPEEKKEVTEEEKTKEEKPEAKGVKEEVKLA

SMILES | IC50 (HDAC-1; read-out: HDAC-1 IC50) [nM] | AC50 [1] [nM] | IC50 (HDAC-1) [nM]
Cc1nn(C)c(C)c1CN1CCc2ccc(/C=C/C(=O)NO)cc2C1 [Example 52, (E)-N-Hydroxy-3-[2-(1,3,5-trimethyl-1H-pyrazol-4-ylmethyl)-1,2,3,4-tetrahydro-isoquinolin-7-yl]-acrylamide] | 100 to 1000 | > 1000 | –
CC(C)(C)c1[nH]c2ccccc2c1CCN1CCc2cc(/C=C/C(=O)NO)ccc2C1 [Example 74, (E)-3-{2-[2-(2-tert-Butyl-1H-indol-3-yl)-ethyl]-1,2,3,4-tetrahydro-isoquinolin-6-yl}-N-hydroxy-acrylamide] | < 100 | 100 to 1000 | –
Cc1[nH]c2ccccc2c1CCN1CCc2ccc(/C=C/C(=O)NO)cc2C1 [Example 39, (E)-N-Hydroxy-3-{2-[2-(2-methyl-1H-indol-3-yl)-ethyl]-1,2,3,4-tetrahydro-isoquinolin-7-yl}-acrylamide] | < 100 | 100 to 1000 | –
CN(C)c1ccc(C(=O)N2CCc3ccc(/C=C/C(=O)NO)cc3C2)cc1 [Example 53, (E)-3-[2-(4-Dimethylamino-benzoyl)-1,2,3,4-tetrahydro-isoquinolin-7-yl]-N-hydroxy-acrylamide] | < 100 | > 1000 | –
CC(C)(C)OC(=O)N1Cc2ccc(/C=C/C(=O)NO)cc2C1 [Example 2, 5-((E)-2-Hydroxycarbamoyl-vinyl)-1,3-dihydro-isoindole-2-carboxylic acid tert-butyl ester] | 100 to 1000 | > 1000 | –
Cc1ccccc1S(=O)(=O)N1Cc2ccc(/C=C/C(=O)NO)cc2C1 [Example 14, (E)-N-Hydroxy-3-[2-(toluene-2-sulfonyl)-2,3-dihydro-1H-isoindol-5-yl]-acrylamide] | 100 to 1000 | > 1000 | –
O=C(/C=C/c1ccc2c(c1)CN(C(=O)c1cccnc1)C2)NO [Example 17, (E)-N-Hydroxy-3-[2-(pyridine-3-carbonyl)-2,3-dihydro-1H-isoindol-5-yl]-acrylamide] | 100 to 1000 | > 1000 | –
CN(C)c1ccc(C(=O)N2CCc3cc(/C=C/C(=O)NO)ccc3C2)cc1 [Example 86, (E)-3-[2-(4-Dimethylamino-benzoyl)-1,2,3,4-tetrahydro-isoquinolin-6-yl]-N-hydroxy-acrylamide] | 100 to 1000 | > 1000 | –
Cc1[nH]c2ccccc2c1CCN1Cc2ccc(/C=C/C(=O)NO)cc2C1 [Example 29, (E)-N-Hydroxy-3-{2-[2-(2-methyl-1H-indol-3-yl)-ethyl]-2,3-dihydro-1H-isoindol-5-yl}-acrylamide] | – | 100 to 1000 | < 100
O=C(/C=C/c1ccc2c(c1)CN(CCC1CCCCC1)CC2)NO [Example 45, (E)-3-[2-(2-Cyclohexyl-ethyl)-1,2,3,4-tetrahydro-isoquinolin-7-yl]-N-hydroxy-acrylamide] | 100 to 1000 | > 1000 | –
O=C(/C=C/c1ccc2c(c1)CN(C(=O)c1cccs1)C2)NO [Example 18, (E)-N-Hydroxy-3-[2-(thiophene-2-carbonyl)-2,3-dihydro-1H-isoindol-5-yl]-acrylamide] | < 100 | > 1000 | –
Cc1ccc(CC(=O)N2CCc3ccc(/C=C/C(=O)NO)cc3C2)cc1 [Example 64, (E)-N-Hydroxy-3-[2-(2-p-tolyl-acetyl)-1,2,3,4-tetrahydro-isoquinolin-7-yl]-acrylamide] | < 100 | > 1000 | –
COc1ccc(C(=O)N2CCc3ccc(CCC(=O)NO)cc3C2)cc1 [Example 58, N-Hydroxy-3-[2-(4-methoxy-benzoyl)-1,2,3,4-tetrahydro-isoquinolin-7-yl]-propionamide] | 100 to 1000 | > 1000 | –
O=C(/C=C/c1ccc2c(c1)CCN(S(=O)(=O)c1ccccc1)C2)NO [Example 81, (E)-3-(2-Benzenesulfonyl-1,2,3,4-tetrahydro-isoquinolin-6-yl)-N-hydroxy-acrylamide] | 100 to 1000 | > 1000 | –
COc1ccc(CC(=O)N2CCc3ccc(/C=C/C(=O)NO)cc3C2)cc1 [Example 65, (E)-N-Hydroxy-3-{2-[2-(4-methoxy-phenyl)-acetyl]-1,2,3,4-tetrahydro-isoquinolin-7-yl}-acrylamide] | < 100 | > 1000 | –
Cn1cnc(S(=O)(=O)N2Cc3ccc(/C=C/C(=O)NO)cc3C2)c1 [Example 15, (E)-N-Hydroxy-3-[2-(1-methyl-1H-imidazole-4-sulfonyl)-2,3-dihydro-1H-isoindol-5-yl]-acrylamide] | 100 to 1000 | > 1000 | –
O=C(/C=C/c1ccc2c(c1)CN(CCc1c[nH]nc1-c1ccccc1)CC2)NO [Example 47, (E)-N-Hydroxy-3-{2-[2-(3-phenyl-1H-pyrazol-4-yl)-ethyl]-1,2,3,4-tetrahydro-isoquinolin-7-yl}-acrylamide] | 100 to 1000 | > 1000 | –
Cc1nn(C)c(C)c1CN1CCc2cc(/C=C/C(=O)NO)ccc2C1 [Example 32, (E)-N-Hydroxy-3-[2-(1,3,5-trimethyl-1H-pyrazol-4-ylmethyl)-1,2,3,4-tetrahydro-isoquinolin-6-yl]-acrylamide] | > 1000 | > 1000 | –
O=C(/C=C/c1ccc2c(c1)CN(S(=O)(=O)c1cccnc1)C2)NO [Example 7, (E)-N-Hydroxy-3-[2-(pyridine-3-sulfonyl)-2,3-dihydro-1H-isoindol-5-yl]-acrylamide] | 100 to 1000 | > 1000 | –
O=C(/C=C/c1ccc2c(c1)CN(CCc1c[nH]c3ccccc13)CC2)NO [Example 36, (E)-N-Hydroxy-3-{2-[2-(1H-indol-3-yl)-ethyl]-1,2,3,4-tetrahydro-isoquinolin-7-yl}-acrylamide] | 100 to 1000 | > 1000 | –
CCc1nn2ccccc2c1CCN1CCc2cc(CCC(=O)NO)ccc2C1 [Example 73, 3-{2-[2-(2-Ethyl-pyrazolo[1,5-a]pyridin-3-yl)-ethyl]-1,2,3,4-tetrahydro-isoquinolin-6-yl}-N-hydroxy-propionamide] | 100 to 1000 | > 1000 | –
CN(C)c1ccc(C(=O)N2CCc3cc(CCC(=O)NO)ccc3C2)cc1 [Example 87, 3-[2-(4-Dimethylamino-benzoyl)-1,2,3,4-tetrahydro-isoquinolin-6-yl]-N-hydroxy-propionamide] | 100 to 1000 | > 1000 | –
COc1ccc(S(=O)(=O)N2CCc3cc(/C=C/C(=O)NO)ccc3C2)cc1 [Example 82, (E)-N-Hydroxy-3-[2-(4-methoxy-benzenesulfonyl)-1,2,3,4-tetrahydro-isoquinolin-6-yl]-acrylamide] | 100 to 1000 | > 1000 | –
